Several values for one entry are separate records, joined by “and”; a condition that tells them apart may be missing. Equal entries are not always repeated.
Legend:
Format in all cases: cell-based
Gleocapsa sp. (Gs) = assay: Algal efficacy testing, modified ASTM 5589 (12-well, dry paint film); settings: at the Total conc, three weeks
Procedure: (§1) Samples of white acrylic latex paint free of biocides were prepared in 50 ml aliquots. Each biocide was post added to give the necessary active ingredient concentration in the paint. The total biocides concentrations tested were 750, 1500, 2500 and 5000 ppm. After biocides addition, each sample was hand mixed for a minimum of 30 sec, followed by a 3 min run on the paint shaker (RED DEVIL). Each of the paint samples as well as a control sample (containing no biocide) were used to prepare films on black plastic-vinyl chloride/acetate copolymer panels (LENETA, Mahwah, N.J.) using a 3 mil bird bar applicator. The panels were thoroughly dried for 5 days avoiding direct exposure to sunlight. Square discs (15 mm^2) were cut out from each panel and were used as the substrate for fungal and algal efficacy tests. This sample size allowed for an agar border when the sample disc was placed into the well of the test plate.
(§2) The appropriate media (BOLD'S 3N for Chlorophytes, BG-11 for Cyanobacteria, and PDA for fungi) were used to support microbial growth. The test plates were maintained at room temp (25° C.-26° C.), in a cycled light-dark environment, for 3 weeks for algae. Plates for fungal challenge tests were maintained at 30C for three weeks. At the end of incubation period the samples were scored for percent area covered by visible microbial growth.
(§3) ASTM 5589 is a standard accelerated test method for determining resistance of various coatings (including paints) to algal defacement. To accommodate for high-throughput screening, this method was scaled down from petri plates to 12-well plates. A single coupon was placed with a pair of sterile forceps at the center of the agar plug (on top) with the painted surface facing upwards. Each well was inoculated with 150 μl of organism (1×10^8 cfu/ml) making sure that the whole surface (paint film as well as the agar surrounding it) was evenly covered. The plates were incubated at room temp (25° C.-26° C.) with cyclic exposure to light (OTT-Lite model #OTL4012P, 40 Watt, 26 KLumen) and dark phases, for a period of three weeks. The total area covered was evaluated at the end of each week according to percent area covered in 5% increments. While rating the plates, notations were made for zones of inhibition.
(§4) The SI is calculated based on F. C. Kull et.

[1] = tested on: Trentepohlia aurea + Trentepohlia odorata (Ta + To); assay: as above; settings: three weeks
Procedure: as §1, §2, §3, §4

[2] = tested on: Calothrix parientina (Cp); assay: as above; settings: three weeks
Procedure: as §1, §2, §3, §4

Nostoc commune (Nc) = assay: as above; settings: three weeks
Procedure: as §1, §2, §3, §4

[3] = tested on: Chlorella sp. + Chlorella kessleri (Cs + Ck); assay: as above; settings: at the Total conc, three weeks
Procedure: as §1, §2, §3, §4

Oscillatoria sp. (Os) = assay: as above; settings: at the Total conc, three weeks
Procedure: as §1, §2, §3, §4

[4] = tested on: Aureobasidium pullulans (Ap); assay: Fungal efficacy testing, modified ASTM 5590 (12-well, dry paint film); settings: at the Total conc, three weeks
Procedure: as §1, §2
(§5) ASTM 5590 is a standard accelerated test method for determining resistance of various coatings (including paints) to fungal defacement. To accommodate for high-throughput screening, this method was scaled down from petri plates to 12-well plates. To set up the test, an agar plug was placed at the bottom of each well of the sterile 12-well plate. A single coupon was placed with a pair of sterile forceps at the center of the agar plug (on top) with the painted surface facing upwards. Each well was inoculated with 150 μl of organism (1×10^6 cfu/ml) making sure that the whole surface (paint film as well as the agar surrounding it) was evenly covered. The plates were incubated at 30° C. in presence of moisture, for a period of three weeks. The total percent area covered was evaluated and recorded at the end of each week after the 2nd week and recorded in increments of 5%.
as §4

[5] = tested on: Cladosporium herbarum (Ch); assay: as above; settings: at the Total conc, three weeks
Procedure: as §1, §2, §5, §4

[6] = tested on: Penicillium funiculosum (Pf); assay: as above; settings: at the Total conc, three weeks
Procedure: as §1, §2, §5, §4

Trichoderma viride (Tv) = assay: as above; settings: three weeks
Procedure: as §1, §2, §5, §4

[7] = tested on: Stachybotris chartarum (Sc); assay: as above; settings: three weeks
Procedure: as §1, §2, §5, §4

[8] = tested on: Alternaria alternata (Aa); assay: as above; settings: at the Total conc, three weeks
Procedure: as §1, §2, §5, §4

Aspergillus niger (An) = assay: as above; settings: three weeks
Procedure: as §1, §2
as §5, with “5%. […]” for “5%.”

[9] = tested on: Cs + Ck + Nc (Chlorella sp., Chlorella kessleri, Nostoc commune); assay: Algal efficacy testing, modified ASTM 5589 (6-well, mixed inoculum, Example 4); settings: four weeks; for Total conc, ppm: Cs + Ck + Nc mixed inoculum, NE = no end point at the concentration tested; for % inhibition: Cs + Ck + Nc, at the Total conc
Procedure: (§6) A single or blend of biocides was post added into white acrylic latex paint free of biocides to give a maximum total active ingredient/s concentration tested. This paint was then diluted with a biocide free acrylic latex paint at concentrations range of 75 to 12.5% w/w to give desired concentrations for the testing. Depending on the type of biocide blends tested, the total biocides concentrations varies from 200 to 5000 ppm. After biocides addition or dilution each sample was hand mixed for at least a minute until uniformity is achieved. Each of the paint samples as well as a control sample (containing no biocide) were used to prepare films on black plastic-vinyl chloride/acetate copolymer panels (LENETA, Mahwah, N.J.) using a 3 mil bird bar applicator. The panels were thoroughly dried for at least 2 days avoiding direct exposure to sunlight. Square discs (0.5 inch^2, 13 mm^2) were cut out from each panel and were used as the substrate for fungal and algal efficacy tests. This sample size allowed for an agar border when the sample disc was placed into the well of the test plate. Each sample was tested in duplicate
(§7) The appropriate media (BOLD'S 3N for Chlorophytes, BG-11 for Cyanobacteria, and PDA for fungi) were used to support microbial growth. The test plates were maintained at room temp (25° C.-26° C.), in a cycled light-dark environment, for four weeks for algae. Plates for fungal challenge tests were maintained at 30 C for four weeks. At the end of the incubation period the samples were scored for percent area covered by visible microbial growth.
as §3, with “6-well” for “12-well”, “upwards. Algal inoculums were prepared by mixing equal concentrations (1×10^6 cfu/ml) and equal volumes (depending on number of samples to be inoculated) of like growing organisms. In this study, Gloeocapsa sp. and Oscillatoria sp. were a mix of cyanobacteria grown on BG-11 media. Chlorella sp., Chlorella kessleri, and Nostoc commune are unicellular chlorphytes that were mixed and grown on Bold media. Trentepohlia aurea, Trentepohlia odorata, and Calotrix parientina are filamentous algae that were mixed and grown on Bold media.” for “upwards.”, “400” for “150”, “mixture (1×10^6” for “(1×10^8”, “four” for “three”

[10] = tested on: Cp + To + Ta (Calotrix parientina, Trentepohlia odorata, Trentepohlia aurea); assay: as above; settings: four weeks; for Total conc, ppm: Cp + To + Ta mixed inoculum, NE = no end point at the concentration tested; for % inhibition: Cp + To + Ta, at the Total conc
Procedure: as §6, §7
as §3, with “6-well” for “12-well”, “upwards. Algal inoculums were prepared by mixing equal concentrations (1×10^6 cfu/ml) and equal volumes (depending on number of samples to be inoculated) of like growing organisms. In this study, Gloeocapsa sp. and Oscillatoria sp. were a mix of cyanobacteria grown on BG-11 media. Chlorella sp., Chlorella kessleri, and Nostoc commune are unicellular chlorphytes that were mixed and grown on Bold media. Trentepohlia aurea, Trentepohlia odorata, and Calotrix parientina are filamentous algae that were mixed and grown on Bold media.” for “upwards.”, “400” for “150”, “mixture (1×10^6” for “(1×10^8”, “four” for “three”

[11] = tested on: Gs + Os (Gloeocapsa sp. + Oscillatoria sp.); assay: as above; settings: four weeks; for Total conc, ppm: Gs + Os mixed inoculum, NE = no end point at the concentration tested; for % inhibition: Gs + Os, at the Total conc
Procedure: as §6, §7
as §3, with “6-well” for “12-well”, “upwards. Algal inoculums were prepared by mixing equal concentrations (1×10^6 cfu/ml) and equal volumes (depending on number of samples to be inoculated) of like growing organisms. In this study, Gloeocapsa sp. and Oscillatoria sp. were a mix of cyanobacteria grown on BG-11 media. Chlorella sp., Chlorella kessleri, and Nostoc commune are unicellular chlorphytes that were mixed and grown on Bold media. Trentepohlia aurea, Trentepohlia odorata, and Calotrix parientina are filamentous algae that were mixed and grown on Bold media.” for “upwards.”, “400” for “150”, “mixture (1×10^6” for “(1×10^8”, “four” for “three”

[12] = tested on: Aa + Ap (Alternaria alternata + Aureobasidium pullulans); assay: Fungal efficacy testing, modified ASTM 5590 (6-well, mixed inoculum, Example 4); settings: four weeks; for Total conc, ppm: Aa + Ap mixed inoculum, NE = no end point at the concentration tested; for % inhibition: Aa + Ap, at the Total conc
Procedure: [The source words this procedure for another target and reports this target under the same test.] as §4, §6, §7
as §5, with “6-well” for “12-well”, “upwards. Fungal inoculums were prepared by mixing equal concentrations (1×10^6 cfu/ml) and equal volumes (depending on number of samples to be tested) of like growing organisms. Cladosporium herbarum was mixed with Aureobasidium pullulans. Aspergillus niger was mixed with Penicillium funiculosum. Alternaria alternata was mixed with Trichoderma viride.” for “upwards.”, “400” for “150”, “organism mixture” for “organism”, “four” for “three”

[13] = tested on: Ch + Tv (Cladosporium herbarum + Trichoderma viride); assay: as above; settings: four weeks; for Total conc, ppm: Ch + Tv mixed inoculum, NE = no end point at the concentration tested; for % inhibition: Ch + Tv, at the Total conc
Procedure: [The source words this procedure for another target and reports this target under the same test.] as §4, §6, §7
as §5, with “6-well” for “12-well”, “upwards. Fungal inoculums were prepared by mixing equal concentrations (1×10^6 cfu/ml) and equal volumes (depending on number of samples to be tested) of like growing organisms. Cladosporium herbarum was mixed with Aureobasidium pullulans. Aspergillus niger was mixed with Penicillium funiculosum. Alternaria alternata was mixed with Trichoderma viride.” for “upwards.”, “400” for “150”, “organism mixture” for “organism”, “four” for “three”

[14] = tested on: An + Pf (Aspergillus niger + Penicillium funiculosum); assay: as above; settings: four weeks; for Total conc, ppm: An + Pf mixed inoculum, NE = no end point at the concentration tested; for % inhibition: An + Pf, at the Total conc
Procedure: as §4, §6, §7
as §5, with “6-well” for “12-well”, “upwards. Fungal inoculums were prepared by mixing equal concentrations (1×10^6 cfu/ml) and equal volumes (depending on number of samples to be tested) of like growing organisms. Cladosporium herbarum was mixed with Aureobasidium pullulans. Aspergillus niger was mixed with Penicillium funiculosum. Alternaria alternata was mixed with Trichoderma viride.” for “upwards.”, “400” for “150”, “organism mixture” for “organism”, “four” for “three”

[15] = total biocide in paint taken as minimum inhibitory concentration
[16] = total biocide in paint taken as minimum inhibitory concentration, 30 C

Molecule	Total conc, ppm [9] [ppm]	% inhibition [9] [%]	Total conc, ppm [10] [ppm]	% inhibition [10] [%]	Total conc, ppm [11] [ppm]	% inhibition [11] [%]	Total conc, ppm [12] [ppm]	% inhibition [12] [%]	Total conc, ppm [13] [ppm]	% inhibition [13] [%]	Total conc, ppm [14] [ppm]	% inhibition [14] [%]	other results
CCCCNC(=O)OCC#CI [IPBC, 3-iodo-2-propynyl-butylcarbamate]	–	–	–	–	–	–	–	–	–	–	–	–	% inhibition (Gleocapsa sp. (Gs)): 95% and 50% and 80%; % inhibition ([1]; at the Total conc): 85% and 82.5% and 72.5%; Total conc, ppm [1, 15]: 2500 ppm and 1500 ppm; % inhibition ([2]; at the Total conc): 97.5% and 90% and 80%; Total conc, ppm [2, 15]: 2500 ppm and 5000 ppm; % inhibition (Nostoc commune (Nc); at the Total conc): 87.5% and 90% and 80%; Total conc, ppm (Nostoc commune (Nc); [15]): 1500 ppm and 2500 ppm; % inhibition [3]: 97.5% and 90% and 70%; % inhibition (Oscillatoria sp. (Os)): 70% and 62.5% and 77.5%; % inhibition [4]: 97.5% and 60% and 87.5%; % inhibition [5]: 75% and 80%; % inhibition [6]: 97.5% and 60% and 70%; % inhibition (Trichoderma viride (Tv); at the Total conc): 90% and 72.5% and 62.5%; Total conc, ppm (Trichoderma viride (Tv); [16]): 750 ppm and 1500 ppm; % inhibition ([7]; at the Total conc): 82.5%; Total conc, ppm [7, 16]: 2500 ppm; % inhibition [8]: 97.5% and 50% and 100%; % inhibition (Aspergillus niger (An); at the Total conc): 87.5% and 80% and 75%; Total conc, ppm (Aspergillus niger (An); [16]): 2500 ppm and 1500 ppm
CCCCCCCCn1sccc1=O [OIT, 2-n-octyl-4-isothiazolin-3-one]	1350	100	1350	95	1350	100	1350	100	450	50	450	100	–
c1ccc2[nH]c(-c3cscn3)nc2c1 [TBZ, thiabendazole]	1250	100	1875	95	1875	100	3750	80	2500	50	625	100	–
zinc pyrithione [ZPT]	1250	100	625	100	625	100	2500	100	–	–	1250	100	–

Reference: patent US8592405B2, “Synergistic antimicrobial composition” (Dow Global Technologies LLC, priority 2009, dated 2013)
